Experimental data published in the supplement of paper PMC10307832.

Assays:
Experiment in all cases: relative viability (nuclei count vs DMSO), 5 days (fraction); higher = more cells survive
Mirin + Linsitinib = compound: N=C1NC(=O)/C(=C/c2ccc(O)cc2)S1 [Mirin] + C[C@]1(O)C[C@@H](c2nc(-c3ccc4ccc(-c5ccccc5)nc4c3)c3c(N)nccn32)C1 [Linsitinib] (partner 1 µM)
Method in brief: (§1)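 Lung cancer cell lines were seeded in 1536-well plates and dosed by pin tool the next day, with either a single drug or a fixed anchor-drug dose combined with five library-drug doses (not always all listed) spaced in √10 steps. Five days later, one step fixed the cells and stained their nuclei (final 0.05% Triton X-100, 1% formaldehyde, 1 ug/ml Hoechst), and nuclei were counted on 4× images. Relative viability is the nuclei count in treated wells divided by the count in vehicle wells, and each value is the median of duplicate plates.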

Mirin + Trametinib = compound: N=C1NC(=O)/C(=C/c2ccc(O)cc2)S1 [Mirin] + CC(=O)Nc1cccc(-n2c(=O)n(C3CC3)c(=O)c3c(Nc4ccc(I)cc4F)n(C)c(=O)c(C)c32)c1 [Trametinib] (partner 0.02 µM)
Method in brief: as §1

[1] = compound: CCn1c(-c2nonc2N)nc2cnc(Oc3cccc(NC(=O)c4ccc(OCCN5CCOCC5)cc4)c3)cc21 + COc1cccc2cc(-c3nc([C@H]4CC[C@H](C(=O)O)CC4)n4ncnc(N)c34)[nH]c12 [OSI-027] (partner 0.5 µM)
Method in brief: as §1

[2] = compound: CCC1=CN=CN=C1N2CCN(CC2)CC3=NC4=C(N3)C=C(C=C4)C(F)(F)F + CC1(C)CCC(c2ccc(Cl)cc2)=C(CN2CCN(c3ccc(C(=O)NS(=O)(=O)c4ccc(N[C@H](CCN5CCOCC5)CSc5ccccc5)c(S(=O)(=O)C(F)(F)F)c4)cc3)CC2)C1 [Navitoclax] (partner 0.5 µM)
Method in brief: as §1

Cell Line	relative viability (Mirin + Linsitinib; first compound 0.25 µM)	relative viability (Mirin + Linsitinib; first compound 0.7906 µM)	relative viability (Mirin + Linsitinib; first compound 2.5 µM)	relative viability (Mirin + Linsitinib; first compound 7.906 µM)	relative viability (Mirin + Linsitinib; first compound 25 µM)	relative viability (Mirin + Trametinib; first compound 0.25 µM)	relative viability (Mirin + Trametinib; first compound 0.7906 µM)	relative viability (Mirin + Trametinib; first compound 2.5 µM)	relative viability (Mirin + Trametinib; first compound 7.906 µM)	relative viability (Mirin + Trametinib; first compound 25 µM)	relative viability ([1]; first compound 0.04 µM)	relative viability ([1]; first compound 0.1265 µM)	relative viability ([1]; first compound 0.4 µM)	relative viability ([1]; first compound 1.265 µM)	relative viability ([1]; first compound 4 µM)	relative viability ([2]; first compound 0.04 µM)	relative viability ([2]; first compound 0.1265 µM)	relative viability ([2]; first compound 0.4 µM)	relative viability ([2]; first compound 1.265 µM)	relative viability ([2]; first compound 4 µM)
NCI-H358	0.734	0.719	0.836	0.57	0.373	0.123	0.146	0.163	0.11	0.13	0.84	0.73	0.579	0.816	0.523	–	–	–	–	–
RERF-LC-KJ	0.962	0.908	0.88	0.896	0.913	0.897	0.975	0.782	0.842	0.816	0.625	0.496	0.38	0.371	0.389	0.906	0.887	0.956	0.698	0.719
NCI-H1792	0.597	0.592	0.617	0.505	0.589	0.422	0.36	0.43	0.421	0.332	0.862	0.513	–	0.596	0.7	0.323	0.572	0.605	0.697	0.554
NCI-H647	1.37	1.44	1.19	1	0.63	0.475	0.605	0.548	0.524	0.474	0.591	0.393	0.323	0.34	0.278	1.21	0.968	–	–	1.04
SK-LU-1	1.14	1.15	1.17	0.74	0.566	0.519	0.519	0.568	0.383	0.538	0.359	0.322	0.216	0.199	0.22	0.78	0.762	0.929	0.697	0.868
NCI-H441	0.503	0.493	0.599	0.45	0.48	0.528	0.404	0.428	0.557	0.508	0.772	0.721	–	0.513	0.472	0.448	0.523	0.57	0.573	0.677
COR-L 105	0.984	1.02	1.13	1.09	0.846	0.428	0.482	0.431	0.449	0.451	0.976	0.654	0.361	0.374	0.26	0.714	0.717	0.695	0.868	0.651
NCI-H1993	0.739	0.746	0.698	0.727	0.756	0.506	0.519	0.533	0.336	0.546	0.612	0.624	0.573	0.569	0.539	1.16	0.934	0.792	0.817	0.778
NCI-H1437	1.09	1.01	1.07	0.784	0.33	0.597	0.46	0.555	0.519	0.399	0.946	0.742	0.553	0.74	0.662	1.09	1	0.944	0.822	0.724
